ChEMBL document CHEMBL3507680, “University of Dundee, Gates Library screen for HepG2 cell viability”

Test: Human HepG2 cell viability assay in 384 well format
Type: toxicity, cell-based
Parameters: dose 125 nL, time 70.5 hour; cytotoxicity at 70.5 h: concentration not given beside the values
Conditions: HepG2 cells, read-out: Inhibition

CCCC(=O)N(CCN1CCOCC1)c1nc2c(OC)ccc(C)c2s1
cytotoxicity at 70.5 h: -7.03%

Cc1c(C)n2c(SCC(=O)N3CCC(C)CC3)nnc2[nH]c1=O
cytotoxicity at 70.5 h: -4.99%

Cc1c(C)n2c(SCC(=O)N3CCCC3)nnc2[nH]c1=O
cytotoxicity at 70.5 h: -7.34%

O=C(Nc1cc(C(F)(F)F)ccc1Cl)c1ccc(N2CCCC2)nn1
cytotoxicity at 70.5 h: 19.7%

O=C(NCc1ccc2c(c1)OCO2)c1ccc(N2CCCCC2)nn1
cytotoxicity at 70.5 h: 12.8%

O=C(Nc1ccc(Br)cc1F)c1ccc(N2CCOCC2)nn1
cytotoxicity at 70.5 h: -6.45%

COCCn1/c(=N/C(=O)C(C)C)sc2cc(Cl)ccc21
cytotoxicity at 70.5 h: 21.1%

CCSc1nc(N)c(NC(=O)c2ccc(C)cc2)c(=O)[nH]1
cytotoxicity at 70.5 h: 10.5%

O=C(O)c1ccc(N2CCC(Cc3ccccc3)CC2)nn1
cytotoxicity at 70.5 h: -1.14%

Cc1nc(-n2nc(-c3cccs3)cc2N)[nH]c(=O)c1C
cytotoxicity at 70.5 h: -4.91%

CCCc1cc(=O)[nH]c(-n2nc(-c3cccs3)cc2N)n1
cytotoxicity at 70.5 h: -12.8%

CC1CCN(C(=O)CSc2nc3c(cnn3CCO)c(=O)[nH]2)CC1
cytotoxicity at 70.5 h: 22.7%

O=C(CSc1nc2c(cnn2CCO)c(=O)[nH]1)NC1CCCCC1
cytotoxicity at 70.5 h: 14.1%

CC(C)NC(=O)CSc1nc2c(cnn2CCO)c(=O)[nH]1
cytotoxicity at 70.5 h: 26.7%

NC(=O)Cn1c(CO)cnc1SCC(=O)NCc1ccccc1Cl
cytotoxicity at 70.5 h: 15.7%

CCS(=O)(=O)Nc1ccc2c(c1)OCC(C)(C)C(=O)N2C
cytotoxicity at 70.5 h: 19%

O=C(c1ccccc1F)N1CCN(c2ccc(-n3cccn3)nn2)CC1
cytotoxicity at 70.5 h: 0.31%

CCc1cc(=O)[nH]c2nnc(SCC(=O)N3CCC(C)CC3)n12
cytotoxicity at 70.5 h: 19.7%

Cc1cc(C(=O)N2CCN(c3nc4c(C)cccc4s3)CC2)no1
cytotoxicity at 70.5 h: 9.18%

COc1ccc(CNc2c(C)cnc3c2c(=O)n(C)c(=O)n3C)cc1
cytotoxicity at 70.5 h: 7.6%

CCc1cnc2c(c1Nc1ccccc1OC)c(=O)n(C)c(=O)n2C
cytotoxicity at 70.5 h: 5.02%

CCc1cnc2c(c1Nc1cccc(OC)c1)c(=O)n(C)c(=O)n2C
cytotoxicity at 70.5 h: 1.18%

CCc1cnc2c(c1Nc1ccc(C)c(F)c1)c(=O)n(C)c(=O)n2C
cytotoxicity at 70.5 h: -8.17%

CC(C)c1nn(CC(=O)N2CCCC2)c(=O)c2c1cnn2C(C)(C)C
cytotoxicity at 70.5 h: 14.2%

CCN(CC)C(=O)Cn1nc(C(C)C)c2cnn(C(C)(C)C)c2c1=O
cytotoxicity at 70.5 h: 13.7%

COCCNC(=O)Cn1cc(OCc2ccc(F)cc2)c(=O)cc1C
cytotoxicity at 70.5 h: 9.56%

COCCNC(=O)Cn1cc(OCc2ccccc2F)c(=O)cc1CO
cytotoxicity at 70.5 h: 45.6%

Cc1cnc2n(c1=O)C(CC(=O)NCc1ccc(F)cc1)CS2 (centres undefined)
cytotoxicity at 70.5 h: -6.08%

Cc1cnc2n(c1=O)C(CC(=O)NCc1cccs1)CS2 (centres undefined)
cytotoxicity at 70.5 h: 0.951%

COc1cccc(CNC(=O)CC2CSc3nc(C)c(C)c(=O)n32)c1 (centres undefined)
cytotoxicity at 70.5 h: -2.74%

CCCc1cc(=O)[nH]c2nnc(SCC(=O)OC)n12
cytotoxicity at 70.5 h: -8.96%

CCCc1cc(=O)[nH]c2nnc(SCC(=O)OCC)n12
cytotoxicity at 70.5 h: -9.96%

Cc1ccccc1-n1ncc2c(=O)n(CCN3CCCCC3)cnc21
cytotoxicity at 70.5 h: 21%

CCc1cc(=O)[nH]c(SCc2ccccn2)n1
cytotoxicity at 70.5 h: -5.73%

Cc1cc(C)nc(NC(=O)NCCCSc2nncn2C)n1
cytotoxicity at 70.5 h: -8.45%

Cc1cc(NC(=O)NCCCSc2nncn2C)no1
cytotoxicity at 70.5 h: -11.7%

COc1cn(CC(N)=O)c(CSc2nc(C)cc(C)n2)cc1=O
cytotoxicity at 70.5 h: 59.2%

O=c1nc(SCc2cccnc2)c2c(n1CCO)CCCC2
cytotoxicity at 70.5 h: -11%

O=S(=O)(c1cccs1)N1CCC(c2nc(-c3cccs3)no2)CC1
cytotoxicity at 70.5 h: 1.6%

CCCN1CCc2nc(SCc3c(C)cc(C)cc3C)[nH]c(=O)c2C1
cytotoxicity at 70.5 h: 4.68%

Cc1nn(CCNS(=O)(=O)c2ccccc2)c(C)c1Cl
cytotoxicity at 70.5 h: -7.1%

CC(=O)c1c(C)nn(CC(=O)Nc2ccc(F)cc2)c1C
cytotoxicity at 70.5 h: 30%

CCCS(=O)(=O)c1ccc(N2CCN(Cc3ccccc3)CC2)nn1
cytotoxicity at 70.5 h: -8.4%

CCN(CC)c1nc2ccsc2c(=O)n1CCC(=O)NC1CCCC1
cytotoxicity at 70.5 h: -6.51%

Cc1ccc(NC(=O)Cn2ncc(SCC(N)=O)c(Cl)c2=O)c(F)c1
cytotoxicity at 70.5 h: -17.2%

CC(C)OC(=O)CN1N=C(C(=O)N2CCCC2)S(=O)(=O)c2ccccc21
cytotoxicity at 70.5 h: 1.63%

CCOc1ccc(CNC(=O)c2cnc(OC)nc2)cc1
cytotoxicity at 70.5 h: -2.49%

CC(C)CCn1nc2ccc(S(=O)(=O)N3CCOCC3)cn2c1=O
cytotoxicity at 70.5 h: -7.21%

O=c1c(S(=O)(=O)N2CCCC2)cccn1Cc1ccc(F)cc1Cl
cytotoxicity at 70.5 h: 31.5%

CC(C)(C)OC(=O)Cn1cccc(S(=O)(=O)N2CCCCCC2)c1=O
cytotoxicity at 70.5 h: -12.4%

O=c1[nH]c2c(-c3ccccn3)nsc2c(=O)n1CC1CC1
cytotoxicity at 70.5 h: -14.6%

CC1CCN(c2cc(-n3cnc(C(=O)N4CCSCC4)c3)ncn2)CC1
cytotoxicity at 70.5 h: -13.5%

O=C(c1nn(-c2ccccc2F)cc1O)N1CCC2(CC1)OCCO2
cytotoxicity at 70.5 h: 13.2%

CCc1nc(CN(C)C2CCN(CC(=O)N3CCOCC3)C2)no1 (centres undefined)
cytotoxicity at 70.5 h: -1.36%

CC(=O)N(Cc1noc(C2CC2)n1)C1CCN(CC2CCOCC2)C1 (centres undefined)
cytotoxicity at 70.5 h: 22.1%

CN(Cc1noc(C2CC2)n1)C1CCN(CC(=O)N2CCOCC2)C1 (centres undefined)
cytotoxicity at 70.5 h: -3.02%

CCc1nc(C2CCCN2C(=O)CCc2c(C)noc2Cl)no1 (centres undefined)
cytotoxicity at 70.5 h: -3.77%

COc1ccc(NC(=O)CCn2nc(-c3cccs3)oc2=O)cc1OC
cytotoxicity at 70.5 h: -5.48%

COc1cc(NC(=O)CCn2nc(-c3cccs3)oc2=O)cc(OC)c1
cytotoxicity at 70.5 h: -7.55%

N#Cc1cccc(NC(=O)CCn2nc(-c3cccs3)oc2=O)c1
cytotoxicity at 70.5 h: -11%

O=C(C1CCCN1Cc1nc(-c2ccco2)no1)N1CCSCC1 (centres undefined)
cytotoxicity at 70.5 h: -5.08%

COc1cc(C(=O)NS(=O)(=O)c2cccc(C#N)c2)cc(OC)c1Br
cytotoxicity at 70.5 h: -6.73%

CC(C)c1ncncc1C(=O)N1CCN(Cc2ccccn2)CC1
cytotoxicity at 70.5 h: -7.1%

CC(C)c1ncncc1C(=O)N1CCN(Cc2ccsc2)CC1
cytotoxicity at 70.5 h: -10.1%

O=C1NCCN1C1CCN(Cc2coc(-c3ccc(F)cc3)n2)CC1
cytotoxicity at 70.5 h: -2.32%

CCc1nnc2n1CCN(Cc1csc(NC(C)=O)n1)C2
cytotoxicity at 70.5 h: -3.38%

COc1ncccc1CNC(=O)NC1CCCOc2ccccc21 (centres undefined)
cytotoxicity at 70.5 h: -4.36%

CC(=O)Nc1nc(CN2CCn3c(C)nnc3C2)cs1
cytotoxicity at 70.5 h: -2.82%

CS(=O)(=O)NC(=O)c1nnn(-c2ccccc2)c1C1CC1
cytotoxicity at 70.5 h: -5.6%

O=C(N1CCCC(n2cncn2)C1)C1(c2ccc(Cl)cc2)CCC1 (centres undefined)
cytotoxicity at 70.5 h: -7.28%

O=C(N1CCCC(n2cncn2)C1)C1(c2cccc(F)c2)CC1 (centres undefined)
cytotoxicity at 70.5 h: -7.31%

O=C(N1CCCC(n2cncn2)C1)C1(c2ccccc2F)CCCC1 (centres undefined)
cytotoxicity at 70.5 h: -5.6%

Cc1nc(CN(C)C2CCN(CCC(=O)N3CCOCC3)C2)no1 (centres undefined)
cytotoxicity at 70.5 h: 15.9%

Cc1ccc(-c2nc(CN3CCC(N4CCNC4=O)CC3)co2)cc1
cytotoxicity at 70.5 h: -0.587%

O=C1NCCN1C1CCN(Cc2coc(-c3ccccc3)n2)CC1
cytotoxicity at 70.5 h: 20.6%

O=C(c1ccc2c(c1)CCCC2)N1CCCC(n2cncn2)C1 (centres undefined)
cytotoxicity at 70.5 h: -4.56%

O=C(CCc1cccs1)N1CCCC1c1noc(C2CC2)n1 (centres undefined)
cytotoxicity at 70.5 h: -6.44%

COc1cc(C(=O)N2CCCC(n3cncn3)C2)ccc1C (centres undefined)
cytotoxicity at 70.5 h: -8.45%

CCc1nc(C2CCCN2C(=O)CCc2cscn2)no1 (centres undefined)
cytotoxicity at 70.5 h: -4.03%

CCc1nc(C2CCCN2C(=O)Cc2cccs2)no1 (centres undefined)
cytotoxicity at 70.5 h: -8.42%

c1ccc2oc(CCCN3CCCC(Cn4cncn4)C3)nc2c1 (centres undefined)
cytotoxicity at 70.5 h: 19.8%

CCc1noc(CN2CCN(C(=O)c3ccccc3F)CC2)n1
cytotoxicity at 70.5 h: 29.8%

CC(C)Cc1noc(CN2CCN(C(=O)c3ccccc3F)CC2)n1
cytotoxicity at 70.5 h: 13.7%

CC(C)c1noc(CN2CCN(C(=O)c3ccc(F)cc3)CC2)n1
cytotoxicity at 70.5 h: -3.61%

CC(NC(=O)Cc1cccs1)c1nnc2n1CCC2 (centres undefined)
cytotoxicity at 70.5 h: -7.18%

CC(NC(=O)CCC(=O)c1cccs1)c1nnc2n1CCC2 (centres undefined)
cytotoxicity at 70.5 h: -3.09%

Cc1cccc(CN2CCN(C(=O)c3cc(C4CC4)[nH]n3)CC2)c1
cytotoxicity at 70.5 h: -4.75%

O=C(c1cc(C2CC2)[nH]n1)N1CCN(Cc2ccncc2)CC1
cytotoxicity at 70.5 h: -11.9%

O=C(NCCNc1ncccn1)C1CCN(C(=O)NC2CC2)CC1
cytotoxicity at 70.5 h: -4.22%

CC(C)(C)OC(=O)N1CCC(C(=O)NCCNc2ncccn2)CC1
cytotoxicity at 70.5 h: -7.43%

c1csc(-c2noc(CN3CCc4cncnc4C3)n2)c1
cytotoxicity at 70.5 h: -8.24%

Cc1ccc(NC2CCN(C(=O)CCc3ccccc3)CC2)nn1
cytotoxicity at 70.5 h: -6.29%

O=C(CCc1ccco1)N1CCC(Nc2cccnn2)CC1
cytotoxicity at 70.5 h: 1.07%

Cc1ccc(NC2CCN(C(=O)CCc3cscn3)CC2)nn1
cytotoxicity at 70.5 h: 11.4%

Cc1ccc(NC2CCN(C(=O)CCNc3ncccn3)CC2)nn1
cytotoxicity at 70.5 h: -9.43%

CC1CN(CC(=O)Nc2ccncc2)CCN1c1nccs1 (centres undefined)
cytotoxicity at 70.5 h: -2.52%

CN1CCOC(CN(C(=O)CCc2cnn(C)c2)c2nccs2)C1 (centres undefined)
cytotoxicity at 70.5 h: -5.55%

O=C(NCCNc1ncccn1)C1CCN(C(=O)N2CCCC2)CC1
cytotoxicity at 70.5 h: -12.3%

CC(C)c1noc(CN2CCN(C(=O)c3cc(Cl)ccc3F)CC2)n1
cytotoxicity at 70.5 h: -8.7%

Cc1nn(C)c(C)c1NC(=O)CN1CCN(c2nccs2)C(C)C1 (centres undefined)
cytotoxicity at 70.5 h: -6.35%

Cc1ccc(NC2CCN(C(=O)c3ccco3)CC2)nn1
cytotoxicity at 70.5 h: 11.9%

Cc1nn(-c2ccccc2)cc1C(=O)N1CCCC1c1cnn(C)c1 (centres undefined)
cytotoxicity at 70.5 h: -6.59%

c1ccc(-c2noc(CCCN3CCCC3Cn3cncn3)n2)cc1 (centres undefined)
cytotoxicity at 70.5 h: -13.4%

COc1cccc2cc(CNCc3ccnc(N(C)C)c3)oc12
cytotoxicity at 70.5 h: 7.6%

CC(c1nc(C(C)(C)C)no1)N1CCN(Cc2ccc(C#N)cc2)CC1 (centres undefined)
cytotoxicity at 70.5 h: -1.19%

Cn1cnc(S(=O)(=O)NCCCN2CCCC2=O)c1Cl
cytotoxicity at 70.5 h: -2.39%

Cn1cnc(S(=O)(=O)NCCCN2CCCCCC2=O)c1Cl
cytotoxicity at 70.5 h: 0.779%

COc1ccc(OC)c(CNCc2ccnc(N3CCOCC3)c2)c1
cytotoxicity at 70.5 h: -4.43%

Cn1ncc2c(N3CCCN(C(=O)c4ccsc4)CC3)ncnc21
cytotoxicity at 70.5 h: -1.19%

Cn1ccc(C(=O)N2CCN(c3ccccn3)CC2)cc1=O
cytotoxicity at 70.5 h: -1.81%

CCCC(=O)N(CCCN1CCOCC1)c1nc2c(F)cccc2s1
cytotoxicity at 70.5 h: -1.9%

CCCC(=O)N(CCCN1CCOCC1)c1nc2c(C)c(C)ccc2s1
cytotoxicity at 70.5 h: -14.7%

O=C(CSc1nnc(N2CCNCC2)s1)Nc1ccccc1
cytotoxicity at 70.5 h: 27.6%

Cc1cc(C)c(N(CC(O)CNCc2ccco2)S(C)(=O)=O)c(C)c1 (centres undefined)
cytotoxicity at 70.5 h: -7.18%
